# Results reported in ChEMBL document CHEMBL5550155, “Discovery of meisoindigo derivatives as noncovalent and orally available Mpro inhibitors: their therapeutic implications in the treatment of COVID-19” (Eur J Med Chem, 2024).
# Calls of active or inactive are those of the source. The calls are words filed in the database; no cut-off is given here.
# Columns and labels:
# [1] = molecular target: Replicase polyprotein 1ab (Severe acute respiratory syndrome coronavirus 2) (UniProt P0DTD1); assay: Inhibition of recombinant SARS-CoV-2 main protease expressed in Escherichia coli BL21 DE3 expression cells using MCA-AVLQSGFR-Lys(Dnp)-Lys-NH2 as substrate at 10 uM incubated for 10 to 15 mins followed by substrate addition by FRET assay relative to control; conditions: time 10-15 min
# SARS-CoV-2 [2] = assay: Antiviral activity against wild type SARS-CoV-2 infected in human Calu-3 assessed as reduction in nucleocapsid protein level at 10 uM preincubated with cells for 2 hrs followed by viral infection for 1 hr and measured after 24 hrs by Western blot analysis; type: functional, organism-based; conditions: Severe acute respiratory syndrome coronavirus 2, time 27.0 hrs
# [3] = molecular target: T1, Replicase polyprotein 1ab (Severe acute respiratory syndrome coronavirus 2, UniProt P0DTD1); assay: Inhibition of recombinant SARS-CoV-2 main protease expressed in Escherichia coli BL21 DE3 expression cells using MCA-AVLQSGFR-Lys(Dnp)-Lys-NH2 as substrate incubated for 10 to 15 mins followed by substrate addition by FRET assay
# [4] = Metabolic stability in mouse liver microsomes assessed as half life at 10 mg/ml preincubated for 5 mins followed by NADPH addition and measured upto 120 mins by HPLC analysis; type: ADME, Microsome; conditions: time < 125 min
# [5] = molecular target: T1, Replicase polyprotein 1ab; assay: Non-covalent inhibition of SARS-CoV-2 main protease incubated for 50 mins followed by substrate addition by FRET assay
# SARS-CoV-2 [6] = assay: Antiviral activity against SARS-CoV-2 infected in African green monkey Vero E6 cells assessed as reduction in viral plaque size pre-infected with virus followed by cell addition for 1 hr and measured after 24 hrs by plaque assay; type: functional, organism-based; conditions: Severe acute respiratory syndrome coronavirus 2
# [7] = Stability of compound in stimulated intestinal fluid assessed as parent compound remaining measured upto 24 hrs by HPLC analysis; type: ADME; conditions: simulated intestinal fluid, read-out: Stability
# SARS-CoV-2 [8] = assay: Antiviral activity against wild type SARS-CoV-2 infected in human HeLa cells expressing ACE2 assessed as reduction in nucleocapsid protein mRNA level preincubated with cells for 2 hrs followed by viral infection for 1 hr and measured after 24 hrs by RT-qPCR analysis; type: functional, organism-based; conditions: Severe acute respiratory syndrome coronavirus 2, HeLa
# [9] = Metabolic stability in mouse liver microsomes assessed as intrinsic clearance at 10 mg/ml preincubated for 5 mins followed by NADPH addition and measured upto 120 mins by HPLC analysis; type: ADME, Microsome; conditions: time < 125 min, read-out: CLH
# [10] = Metabolic stability in mouse liver microsomes assessed as parent compound remaining at 10 mg/ml measured after 120 mins by HPLC analysis; type: ADME, Microsome; conditions: read-out: Stability
# [11] = molecular target: T1, Replicase polyprotein 1ab; assay: Non-covalent inhibition of SARS-CoV-2 main protease incubated for 10 mins followed by substrate addition by FRET assay
# SARS-CoV-2 [12] = assay: Antiviral activity against wild type SARS-CoV-2 infected in human HeLa cells expressing ACE2 assessed as reduction in nucleocapsid protein level at 10 uM preincubated with cells for 2 hrs followed by viral infection for 1 hr and measured after 24 hrs by Western blot analysis; type: functional, organism-based; conditions: Severe acute respiratory syndrome coronavirus 2, time 27.0 hrs
# [13] = molecular target: T1, Replicase polyprotein 1ab; assay: Non-covalent inhibition of SARS-CoV-2 main protease incubated for 30 mins followed by substrate addition by FRET assay
# SARS-CoV-2 [14] = assay: Antiviral activity against wild type SARS-CoV-2 infected in human HeLa cells expressing ACE2 assessed as reduction in viral spike protein level at 10 uM preincubated with cells for 2 hrs followed by viral infection for 1 hr and measured after 24 hrs by Western blot analysis; type: functional, organism-based; conditions: Severe acute respiratory syndrome coronavirus 2, time 27.0 hrs
# [15] = n-Octanol/water partition coefficient, logP of the compound incubated for 12 hrs by HPLC analysis; type: physicochemical
# SARS-CoV-2 [16] = assay: Antiviral activity against wild type SARS-CoV-2 infected in human HeLa cells expressing ACE2 assessed as reduction in viral spike protein level preincubated with cells for 2 hrs followed by viral infection for 1 hr and measured after 24 hrs by RT-qPCR analysis; type: functional, organism-based; conditions: Severe acute respiratory syndrome coronavirus 2, HeLa
# SARS-CoV-2 [17] = assay: Antiviral activity against SARS-CoV-2 infected in African green monkey Vero E6 cells assessed as reduction in viral plaque number pre-infected with virus followed by cell addition for 1 hr and measured after 24 hrs by plaque assay; type: functional, organism-based; conditions: Severe acute respiratory syndrome coronavirus 2
# [18] = Solubility of the compound in water incubated for 24 hrs by HPLC analysis; type: physicochemical
# [19] = Stability of compound in stimulated gastric fluid assessed as parent compound remaining measured upto 24 hrs by HPLC analysis; type: ADME; conditions: simulated gastric fluid, read-out: Stability
# [20] = molecular target: T1, Replicase polyprotein 1ab; assay: Binding affinity to recombinant SARS-CoV-2 main protease expressed in Escherichia coli BL21 DE3 expression cells assessed as dissociation constant measured for 60 secs by SPR analysis
# SARS-CoV-2 [21] = assay: Antiviral activity against wild type SARS-CoV-2 infected in human Calu-3 cells assessed as reduction in viral spike protein level at 10 uM preincubated with cells for 2 hrs followed by viral infection for 1 hr and measured after 24 hrs by Western blot analysis; type: functional, organism-based; conditions: Severe acute respiratory syndrome coronavirus 2, time 27.0 hrs
# SARS-CoV-2 [22] = assay: Antiviral activity against wild type SARS-CoV-2 infected in human Calu-3 assessed as reduction in viral spike protein level at 10 uM preincubated with cells for 2 hrs followed by viral infection for 1 hr and measured after 24 hrs by RT-qPCR analysis; type: functional, organism-based; conditions: Severe acute respiratory syndrome coronavirus 2, time 27.0 hrs
# SARS-CoV-2 [23] = assay: Antiviral activity against wild type SARS-CoV-2 infected in human Calu-3 cells assessed as reduction in nucleocapsid protein mRNA level at 10 uM preincubated with cells for 2 hrs followed by viral infection for 1 hr and measured after 24 hrs by RT-qPCR analysis; type: functional, organism-based; conditions: Severe acute respiratory syndrome coronavirus 2, time 27.0 hrs
structure (smiles),measurement,setting,value
CN1C(=O)C2(CC=CCC23C(=O)Nc2ccc(Br)cc23)c2ccccc21 (stereo not given),inhibition,[1],6%
CN1C(=O)/C(=C2/C(=O)Nc3ccccc32)c2cc(F)ccc21,inhibition,[1],82.5%
CN1CCN(CCN2C(=O)/C(=C3/C(=O)Nc4ccccc43)c3ccccc32)CC1,inhibition,[1],91.3%
O=C(O)CCCCCCCCCN1C(=O)/C(=C2/C(=O)Nc3ccccc32)c2cc(Br)ccc21,inhibition,[1],76.8%
O=C(O)CCCCCCCCCN1C(=O)/C(=C2/C(=O)Nc3ccccc32)c2ccccc21,inhibition,[1],71.2%
O=C(O)CCCCCN1C(=O)/C(=C2/C(=O)Nc3ccccc32)c2ccccc21,inhibition,[1],59.8%
O=C1Nc2ccccc2/C1=C1\C(=O)N(CCN2CCOCC2)c2ccccc21,inhibition,[1],83.9%
O=C(O)CCCCCCCN1C(=O)/C(=C2/C(=O)Nc3ccccc32)c2cc(O)ccc21,inhibition,[1],63.7%
COc1ccc2c(c1)C1(CC=CCC13C(=O)Nc1ccccc13)C(=O)N2C (stereo not given),inhibition,[1],4.1%
COc1ccc2c(c1)/C(=C1\C(=O)N(C)c3ccccc31)C(=O)N2,inhibition,[1],70.7%
CN1C(=O)/C(=C2/C(=O)Nc3ccccc32)c2cc([N+](=O)[O-])ccc21,Activity,SARS-CoV-2 [2],Active
same,inhibition,[1],32.8%
CCOC(=O)CCCCCCCCCN1C(=O)/C(=C2/C(=O)Nc3ccccc32)c2cc(Br)ccc21,inhibition,[1],21.2%
CN1C(=O)/C(=C2/C(=O)Nc3ccc(Br)cc32)c2ccccc21,inhibition,[1],94.5%
O=C1Nc2ccccc2/C1=C1\C(=O)Nc2ccccc21 [ISOINDIGO],IC50,[3],1200 nM
same,inhibition,[1],85.3%
CN1C(=O)/C(=C2/C(=O)Nc3ccccc32)c2cc(Br)ccc21,inhibition,[1],32.4%
CN1C(=O)/C(=C2/C(=O)N(CCCN)c3ccc(Br)cc32)c2ccccc21.Cl,half-life,[4],495 min
same,IC50,[5],1340 nM
same,Activity,SARS-CoV-2 [6],Active
same,remaining at 24 h,[7],73.6%
same,EC50,SARS-CoV-2 [8],2660 nM
same,microsomal CLint,[9],1.4 µL/min/mg
same,remaining at 2 h,[10],84%
same,IC50,[11],1300 nM
same,Activity,SARS-CoV-2 [12],Active
same,IC50,[13],1150 nM
same,Activity,SARS-CoV-2 [14],Active
same,logP at 12 h,[15],0.29
same,EC50,SARS-CoV-2 [16],2740 nM
same,IC50,[3],1350 nM
same,Activity,SARS-CoV-2 [17],Active
same,solubility at 24 h,[18],2490 µg/mL
same,remaining at 24 h,[19],95.3%
same,Kd,[20],16800 nM
same,inhibition,[1],90.5%
CN1C(=O)/C(=C2/C(=O)N(CCN)c3ccccc32)c2cc(Br)ccc21.Cl,IC50,[5],1490 nM
same,Activity,SARS-CoV-2 [6],Active
same,remaining at 24 h,[7],78%
same,EC50,SARS-CoV-2 [8],2030 nM
same,IC50,[11],1960 nM
same,Activity,SARS-CoV-2 [12],Active
same,IC50,[13],1520 nM
same,Activity,SARS-CoV-2 [14],Active
same,logP at 12 h,[15],0.59
same,EC50,SARS-CoV-2 [16],1760 nM
same,IC50,[3],1090 nM
same,Activity,SARS-CoV-2 [17],Active
same,solubility at 24 h,[18],3810 µg/mL
same,remaining at 24 h,[19],95%
same,Kd,[20],1270 nM
same,inhibition,[1],85.8%
CC(C)(C)[C@H](NC(=O)C(F)(F)F)C(=O)N1C[C@H]2[C@@H]([C@H]1C(=O)N[C@H](C#N)C[C@@H]1CCNC1=O)C2(C)C,EC50,SARS-CoV-2 [16],16900 nM
COc1ccc2c(c1)/C(=C1\C(=O)Nc3ccccc31)C(=O)N2CCCCCCCC(=O)O,IC50,[3],1610 nM
same,inhibition,[1],89.1%
CCOC(=O)CCCCCCCN1C(=O)/C(=C2/C(=O)Nc3ccccc32)c2cc(Br)ccc21,inhibition,[1],25.2%
O=C(O)CCCCCCCN1C(=O)/C(=C2/C(=O)Nc3ccccc32)c2cc(Br)ccc21,Activity,SARS-CoV-2 [21],Active
same,Activity,SARS-CoV-2 [22],Active
same,Activity,SARS-CoV-2 [23],Active
same,IC50,[3],1210 nM
same,Activity,SARS-CoV-2 [2],Active
same,inhibition,[1],97.8%
CN1C(=O)/C(=C2/C(=O)N(CCNC(=O)OC(C)(C)C)c3ccccc32)c2ccccc21,inhibition,[1],52.6%
CN1C(=O)/C(=C2/C(=O)Nc3ccccc32)c2ccccc21 [MEISOINDIGO],IC50,[3],15600 nM
same,inhibition,[1],50.6%
O=C(O)CCCCCCCCCCCN1C(=O)/C(=C2/C(=O)Nc3ccccc32)c2ccccc21,inhibition,[1],72.9%
CN1C(=O)/C(=C2/C(=O)Nc3ccccc32)c2cc(Cl)ccc21,inhibition,[1],40.8%
CN1C(=O)/C(=C2/C(=O)N(CCN3CCCC3)c3ccccc32)c2ccccc21.Cl,remaining at 24 h,[7],85.3%
same,Activity,SARS-CoV-2 [12],inactive
same,Activity,SARS-CoV-2 [14],inactive
same,logP at 12 h,[15],0.7
same,IC50,[3],1150 nM
same,solubility at 24 h,[18],17300 µg/mL
same,remaining at 24 h,[19],95.2%
same,Kd,[20],700 nM
same,inhibition,[1],86.5%
COc1ccc2c(c1)/C(=C1\C(=O)Nc3ccccc31)C(=O)N2C,inhibition,[1],91.4%
CN1C(=O)/C(=C2/C(=O)N(C)c3ccccc32)c2ccccc21,inhibition,[1],25.7%
CN1C(=O)C2(CC=CCC23C(=O)Nc2ccccc23)c2ccccc21 (stereo not given),inhibition,[1],11.9%
O=C1Nc2ccccc2/C1=C1\C(=O)N(CCBr)c2ccccc21,inhibition,[1],97.4%
O=C(O)CCCCCCCN1C(=O)/C(=C2/C(=O)Nc3ccccc32)c2ccccc21,inhibition,[1],73.8%
CN1C(=O)/C(=C2/C(=O)Nc3ccccc32)c2cc(O)ccc21,Activity,SARS-CoV-2 [21],Active
same,Activity,SARS-CoV-2 [22],Active
same,Activity,SARS-CoV-2 [23],Active
same,inhibition,[1],84.2%
